# System: lipoxin A4
# Assay: Synthesis/release of lipoxin A4 by stimulated (PMA/A23187 + DHA/EPA) mononuclear blood cells, LC-MS quantification, % modulation relative to the control
# Assay type: cell-based
# Conditions: % modulation vs stimulated control
# Description: Mononuclear blood cells are cultured under 5% CO2 and at 37° C. in a serum-free medium for macrophages (SFM Macrophage; Invitrogen 12065074) for 24 hours.
# After this step, the medium is replaced with the same fresh test medium also containing the active agents at the various doses for 30 minutes in the presence of the various products to be evaluated, as indicated in the table of results below. The inflammatory response was then triggered in the presence of phorbol myristate (0.05 μM) and calcium ionophore (1 μM) and of a lipid substrate mixture composed of docosahexaenoic acid (DHA—1 μg/mL) and eicosapentaenoic acid (EPA—1 μg/mL).
# The supernatants were then collected after 2 hours of stimulation and frozen at −80° C. before preparation for analysis by mass spectrometry.
# Experimental triplicates (three wells) were prepared per experimental condition. Into each culture plate was placed a control corresponding to cells stimulated with the PMA/A23187 mixture and/or with addition of the equimolar mixture of fatty acids.
# The thawed supernatants were concentrated by solid-phase extraction (SPE) and taken up in methanol before spectrometric analysis. The analytical method used consists in separating the various analytes by high-pressure liquid chromatography as a function of their retention time and in quantifying them by mass spectrometry. […]
Compound,Level of lipoxin A4 production (taurine 3.1 mg/ml),Level of lipoxin A4 production (zinc gluconate 0.005 mg/ml)
NCCS(=O)(=O)O [Taurine],+38%,–
Zinc gluconate,–,−5%

# Reference: patent publication US20160074353A1, “USE OF PETROSELINIC ACID TO FIGHT AGAINST AESTHETIC DISORDERS OF THE BODY FIGURE” (L'OREAL, priority 2013, published 2016)
